Read-outs that look alike come from different tables or passages of the source.

In one experiment the test system is COLO829 cells. The experiment is described as follows: Growth inhibition assay (CellTiter-Glo), COLO829. The format is cell-based. Particulars: Homo sapiens. How it is done: Growth inhibition assay: Cells were plated into a 96-well plate at a density of 3000 cells per well and allowed to adhere overnight. Compounds were dissolved in DMSO, diluted 3-fold to create an 8-point titration and added to cells. After a 72-hour incubation, cell viability was examined using CellTiter-Glo® (Promega).
In order to determine the effects of Formula I on proliferation, a growth assay was established using melanoma cells (A375 and COLO829) and colorectal carcinoma cells (COLO205, HT-29) which each express the BRAFV600E mutation. To show selectivity over wild-type BRAF, several BRAF wild-type cell lines (K562, NOMO-1, MV-4-11 and ML-2) were also examined in the growth assay. The growth assay implemented the Promega CellTiter-Glo Luminescent Cell viability assay, which gives a luminescent readout that is proportional to the amount of ATP present in a cell sample. As ATP levels directly correlate with the number of viable cells, the luminescent signal can be used to determine the potency of Formula I to block the proliferation of the cell lines of interest.
1. 3,000 cells were plated in each well for cell lines A375, COLO205, COLO829, HT-29, and SK-MEL-3. 25,000 cells were plated in each well for cell lines K562, ML-2, MV-4-11, and
NOMO-1 of a 96-well tissue-culture-treated plate (Corning #3610) in a 50 μL volume. Cells were incubated overnight at 37° C.
2. Each test compound was plated as an 8-point titration, using 1:3 dilutions in DMSO. The maximum concentration was about 5 mM. Dilute DMSO and test compound of Formula I 1:250 in growth media.
3. 50 μL of the diluted compound was transferred into 50 μL cells, for a 500-fold final compound dilution (maximum concentration is typically 10 μM and DMSO concentration is 0.2%). The cells were incubated with DMSO/compound for 3 days at 37° C. in 5% CO2.
4. Cell Titer-Glo Luminescent Assay Reagent was brought to room temperature and reconstituted as directed in the product manual. The cell cultures were also brought to room temperature for about 20-30 minutes. […] Luminescence was measured on a Tecan Safire plate reader. […]

In experiment [1] the test system is pERK in HCT116 cells (KRAS^G13D). The experiment is described as follows: Phospho-ERK AlphaScreen assay, pERK activation in HCT116. The class given is cell-based. Particulars: Homo sapiens, HCT-116. How it is done:
(§1) Phospho-ERK AlphaScreen® assay: The degree of ERK phosphorylation was determined using an AlphaScreen® assay where an increase in ERK1/2 phosphorylation at Thr202/Tyr204 brought the donor and acceptor AlphaScreen® beads into close proximity, generating a signal for quantification. To determine the effects of compound treatment on phosphorylation of ERK1/2, cells were plated in a 96-well plate and treated with an 8-point titration of compound for one hour at 37° C. before lysis. To detect pERK, cell lysates were incubated with streptavidin-coated AlphaScreen® donor beads, anti-mouse IgG AlphaScreen® acceptor beads, a biotinylated anti-ERK1/2 rabbit antibody, and a mouse antibody that recognizes ERK1/2 only when it is phosphorylated on Thr202 and Tyr204. The biotinylated ERK1/2 antibody binds to both the streptavidin-coated AlphaScreen® donor beads and to ERK1/2 (regardless of its phosphorylation state), and the phospho-ERK1/2 antibody binds to the acceptor beads and to ERK1/2 that is phosphorylated at Thr202/Tyr204. An increase in ERK1/2 phosphorylation at Thr202/Tyr204 brings the donor and acceptor AlphaScreen® beads into close proximity, generating a signal that can be quantified on an EnVision reader (Perkin Elmer).
(§2) Using AlphaScreen® technology, the ability of Formula I to affect the phosphorylation of ERK and MEK in the cells was measured quantitatively. Following treatment with compound, the cells were lysed, and a sample of the lysate was transferred to an assay plate. The lysate was mixed with antibodies directed against total ERK/MEK, antibodies that recognize specific phosphorylation sites on ERK/MEK, AlphaScreen® anti-mouse IgG Acceptor beads, and Streptavidin Donor beads. Upon excitation of the donor beads with laser light at 680 nm, singlet oxygen was produced. This singlet oxygen was rapidly quenched, unless the AlphaScreen® Acceptor beads were in close proximity, in which case a proximity signal can be measured at 580 nm. In the presence of phosphorylated ERK/MEK, there is a very strong proximity signal.
(§3) 1. One day before the assay, 50,000 cells were plated in each well of a 96-well tissue-culture-treated plate (Corning #3610) in a 50 μL volume. Cells were incubated at 37° C. overnight.
(§4) 2. Compounds were diluted in DMSO to 500× final concentration. Each compound was plated as an 8-point titration, using 1:3 dilutions in DMSO. The maximum concentration was about 5 mM.
(§5) 3. 1 μl of compound was added to each well of a 96-well polypropylene plate (Corning #3363). For A375, COLO829, SK-MEL-3, HCT116, and HT-29, the high control was DMSO, and the low control was 10 μM PLX4720 (CAS No. 918505-84-7). For B9 and IPC-298, the high control was 3.33 μM PLX4720, and the low control was DMSO. 4. 249 μL growth media was added to compounds, diluting them 250-fold. 5. […] The compound was incubated with the cells at 37° C. for one hour. 6. The media was aspirated, and the cells were lysed in 50 μL of ice-cold 1× Cell Lysis buffer. The plates were incubated on ice for 5 minutes to allow complete lysis of the cells. 7. A mixture of biotinylated donor antibody, acceptor antibody, and anti-mouse IgG AlphaScreen® acceptor beads in 1× AlphaLISA immunoassay buffer was prepared. 8. 5 μL of lysate was transferred to a 384-well assay plate (Perkin Elmer #6005359). 5 μL of the antibody and acceptor bead mixture was added. The plates were spinned.

The test system of experiment [2] is pERK in COLO829 cells (BRAF^V600E, heterozygous). The experiment is described as follows: Phospho-ERK AlphaScreen assay, pERK inhibition in COLO829. The class given is cell-based. To be noted: Homo sapiens, COLO-829, 1 h, read-out: pERK inhibition IC50 COLO829. How it is done: as §1, §2, §3, §4, §5
Experiment [3] has as its system pERK in IPC-298 cells (NRAS^Q61L). The experiment is described as follows: Phospho-ERK AlphaScreen assay, pERK activation in IPC-298. Particulars: for EC50: Homo sapiens. The class given is cell-based, human. How it is done:
as §1, §2, §3, §4, §5

The test system of experiment [4] is pERK in A375 cells (BRAF^V600E, homozygous). The experiment is described as follows: Phospho-ERK AlphaScreen assay, pERK inhibition in A375. The class given is cell-based. To be noted: Homo sapiens, A-375, 1 h, read-out: pERK inhibition IC50 A375. As for the experimental part: as §1, §2, §3, §4, §5
Where [5] appears, read: COLO-829, 72-hour incubation, read-out: In vitro growth inhibition IC50, COLO829.
The mark [6] stands for this setting: HCT116, KRAS^G13D, concentration increasing pERK to 50% compared to positive control 10 μM PLX4720, read-out: pERK activation EC50 HCT116.
[7] abbreviates: read-out: pERK activation Mean EC50, HCT116.
Setting [8] is: COLO829, BRAF^V600E heterozygous, one hour treatment.
Setting [9] is: IPC-298, read-out: pERK activation Mean EC50, IPC-298.
The mark [10] stands for this setting: IPC-298, NRAS^Q61L, concentration increasing pERK to 50% compared to positive control 10 μM PLX4720, read-out: pERK activation EC50 IPC298.
Where [11] appears, read: A375, BRAF^V600E homozygous, one hour treatment.

With `CCCS(=O)(=O)Nc1ccc(F)c(C(=O)c2c[nH]c3ncc(-c4ccc(Cl)cc4)cc23)c1F` [Vemurafenib, vemurafenib, reference compound], the IC50 in the experiment with COLO829 cells (setting [5]) was 0.69 µM; in experiment [2] (setting [8]) it was 0.041 µM; in experiment [4] (setting [11]) it was 0.032 µM. The concentration giving a half-maximal response (EC50) came out at 0.34 µM in experiment [1] (setting [6]), 0.286 µM in experiment [1] (setting [7]), 0.84 µM in experiment [3] (setting [9]) and 0.54 µM in experiment [3] (setting [10]).

`CCN(C)S(=O)(=O)Nc1ccc(F)c(C(=O)c2c[nH]c3ncc(-c4cnc(C5CC5)nc4)cc23)c1F` [Formula II, 5-(2-cyclopropylpyrimidin-5-yl)-3-[3-[[ethyl(methyl)sulfamoyl]amino]-2,6-difluoro-benzoyl]-1H-pyrrolo[2,3-b]pyridine]: the figures for the IC50 (in the experiment on COLO829 cells (setting [5]); in experiment [2] (setting [8]); in experiment [4] (setting [11])) were 0.53 µM, 0.0021 µM and 0.0035 µM, respectively. For the same compound, the EC50 in experiment [1] (setting [6]) and in experiment [3] (setting [10]) was above 200 µM each time. The “MAPK signaling / pERK increase in IPC-298 (in words)” value in experiment [3] (FIG. 1(B), NRAS^Q61L) is “negligible pERK increase”.

`O=C(c1c(F)ccc(NS(=O)(=O)N2CC[C@@H](F)C2)c1F)c1c[nH]c2ncc(-c3cnc(C4CC4)nc3)cc12` [Formula I, (3R)—N-[3-[5-(2-cyclopropylpyrimidin-5-yl)-1H-pyrrolo[2,3-b]pyridine-3-carbonyl]-2,4-difluorophenyl]-3-fluoropyrrolidine-1-sulfonamide]: the 50% inhibitory concentration (IC50) came out at 0.1 µM with COLO829 cells (COLO-829, 72 h, Table 4, melanoma, BRAF V600E/WT, RAS WT, 3 days, read-out: Growth IC50 Colo829); 0.018 µM in experiment [2]; 0.016 µM in experiment [4]. Besides, the concentration for a half-maximal effect (EC50) in experiment [1] (setting [6]) was above 200 µM; in experiment [1] (setting [7]), 10 µM; in experiment [3] (setting [9]), 10 µM; in experiment [3] (setting [10]), above 200 µM.

Source of the values: US9814714B2, “Kinase modulation, and indications therefor” (Plexxikon Inc., priority 2015, dated 2017).
